From BindingDB's records for doi:10.1128/AAC.37.4.810 (National Cancer Institute-Bethesda, 1993)

Target: T1, Dimer of Gag-Pol polyprotein [489-587] (Human immunodeficiency virus 1, UniProt P12497)
T1 construct: 489-587
Experiment: Protease Inhibition Assay
Settings: pH 6.2; 37 °C
Protocol: Inhibition constants were determined by a fluorometric assay with the fluorogenic substrate Arg-Glu(EDANS)-Ser-Gln-Asn-Tyr-Pro-Ile-Val-Lys(DABCYL)-Arg. The data were analyzed with the mathematical model for tight-binding inhibitors in which the concentration of inhibitor is less than or equal to the enzyme concentration. The data were fitted by nonlinear regression analysis to the equation with program Enzfitter (version 1.05).

| SMILES | Ki [pM] |
| --- | --- |
| CSC[C@H](NC(=O)COc1cccc2cnccc12)C(=O)N[C@@H](Cc1ccccc1)[C@H](O)C(=O)N1CSC(C)(C)[C@H]1C(=O)NC(C)(C)C | 2.3 |
| CSC[C@H](NC(=O)COc1cccc2cnccc12)C(=O)N[C@@H](Cc1ccccc1)[C@H](O)C(=O)N1CSC[C@H]1C(=O)NC(C)(C)C [Kynostatin 272] | 5.5 |
| CC(C)(C)NC(=O)[C@H]1N(C(=O)[C@@H](O)[C@H](Cc2ccccc2)NC(=O)[C@H](CC(N)=O)NC(=O)COc2cccc3ccccc23)CSC1(C)C [Noa-Asn-Apns-Dmt-NH-tBu] | 6.8 |
